# Columns and labels:
# [1] = target: HIV-1 protease (Human immunodeficiency virus type 1 group M subtype B, UniProt P04585); assay: HIV-1 protease enzyme inhibitory assay; format: biochemical
# [2] = system: HIV-1MDR/G (X4); format: cell-based
# [3] = system: HIV-1MDR/C (X4); format: cell-based
# [4] = system: HIV-1MDR/MM (R5); format: cell-based
# [5] = system: HIV-1MDR/JSL (R5); assay: microbe, parasite or virus in culture; format: cell-based
# [6] = system: HIV-1MDR/TM (X4); format: cell-based
structure (smiles),measurement,setting,value
Cc1ccccc1CNC(=O)[C@H]1N(C[C@@H](O)[C@H](Cc2ccccc2)NC(=O)O[C@H]2CCOC2)CSC1(C)C [Inhibitor 14a],reduction in enzyme inhibitory activity,[1]; relative to corresponding inhibitor 3a,over 400 fold
Cc1ccccc1CNC(=O)[C@H]1N(C(=O)[C@@H](O)[C@H](Cc2ccccc2)NC(=O)O[C@H]2CO[C@H]3OCC[C@H]32)CSC1(C)C [Inhibitor 3b],potency over amprenavir,[2],≥ 5 fold
same,potency enhancement,"[1]; with respect to 3a, enzyme inhibition",over 40 fold
same,potency over amprenavir,[3],≥ 5 fold
same,potency over amprenavir,[4],≥ 5 fold
same,potency over amprenavir,[5]; HIV-1MDR/JSL,over 2 fold
same,potency over amprenavir,[6],≥ 5 fold
"CC(C)CN(C[C@@H](O)[C@H](Cc1ccccc1)NC(=O)O[C@H]1CCOC1)S(=O)(=O)c1ccc(N)cc1 [APV, Amprenavir, reference compound]",IC50,[5]; Human immunodeficiency virus 1,531 ± 69 nM
Cc1cc(CO)ccc1CNC(=O)[C@H]1N(C(=O)[C@@H](O)[C@H](Cc2ccccc2)NC(=O)O[C@H]2CO[C@H]3OCC[C@H]32)CSC1(C)C [Inhibitor 16c],enzyme inhibitory activity (in words),[1],sub-nanomolar
